Values of other authors, collected in patent publication US20160206617A1, “COMPOSITIONS AND THERAPEUTIC METHODS FOR ACCELERATED PLAQUE REGRESSION” (RESVERLOGIX CORP., priority 2013, published 2016).
Read-outs that look alike come from different tables or passages of the source.

What was measured:
[1] = test system: ApoA-I; settings: in vitro and in vivo
[2] = test system: atherosclerosis; settings: REVERSAL; 2 years; pravastatin 40 mg daily, atorvastatin 80 mg daily
[3] = test system: atherosclerosis; settings: SATURN; 2 years; rosuvastatin 40 mg daily, atorvastatin 80 mg daily
[4] = test system: atherosclerosis

COc1cc(OC)c2c(=O)[nH]c(-c3cc(C)c(OCCO)c(C)c3)nc2c1 [RVX-208, 2-(4-(2-hydroxyethoxy)-3,5-dimethylphenyl)-5,7-dimethoxyquinazolin-4(3H)-one]
effect on plasma levels of ApoA-I and HDL [1]: increase plasma levels of ApoA-I and HDL

CC(C)c1c(C(=O)Nc2ccccc2)c(-c2ccccc2)c(-c2ccc(F)cc2)n1CC[C@@H](O)C[C@@H](O)CC(=O)O [atorvastatin]
median change in PAV [2]: +0.2%
median change in PAV [3]: −0.99%

CC(C)c1nc(N(C)S(C)(=O)=O)nc(-c2ccc(F)cc2)c1/C=C/[C@@H](O)C[C@@H](O)CC(=O)O [rosuvastatin, (3R,5S,6E)-7-[4-(4-fluorophenyl)-2-(N-methylmethanesulfonamido)-6-(propan-2-yl)pyrimidin-5-yl]-3,5-dihydroxyhept-6-enoic acid]
median change in PAV [3]: −1.22%
median change PAV ([4]; ASTEROID, 2 years, rosuvastatin 40 mg daily, all patients): −0.79%
median decrease in PAV from baseline ([4]; ASTEROID, subgroup with average HDL-C during treatment less than 40 mg/dL): −1.3%
PAV decrease (median change) ([4]; FIG. 8, rosuvastatin 40 mg without RVX-208, after 104 weeks, below median HDL): 1.30%
